Reference: patent US20240216440A1, “STRING-LIKE AGGREGATES OF RETINAL PIGMENT EPITHELIAL CELLS, DEVICE AND PRODUCTION METHOD FOR PRODUCING SAME, AND THERAPEUTIC AGENT COMPRISING SAID STRING-LIKE AGGREGATES” (RIKEN, priority 2021, published 2024)
“Also recorded” adds a separate entry of the source.

What was measured:
Assay type in all cases: cell-based, human
[1] = system: hiPSC-RPEs (M8 line); test: String-like aggregate formation under different Y-27632 concentrations, M8 line; conditions: for appearance of string-like aggregates: day 2
Description: After thawing, hiPSC-RPE cells were cultured for 2 weeks, the cells were collected, and seeded in the number described in each experiment into each groove of the PDMS-based culture device, using 15 μl RPE maintenance medium containing the optimal concentration of Y-27632 (concentrations indicated for each experiment). In the present inventors' preliminary experiment (FIG. 14A), higher concentrations of Y-27632 appeared to affect the texture of the string-like aggregates to become tighter. […] Next, the present inventors directly compared string-like aggregates made with either 2.5 μM or 10 μM of Y-27632 (FIGS. 13B-G). […] On the other hand, string-like aggregates formed with 10 μM Y-27632 appeared more dense (FIG. 13B).

[2] = system: hiPSC-RPE cells (M8 line); test: Adhesion and expansion of plated string-like aggregates on uncoated 24-well plate, M8 line; conditions: for adhesion to plate and expansion of string-like aggregates: uncoated wells
Description: The string-like aggregates were released from the grooves of the device, and the string-like aggregates were seeded onto an uncoated 24-well plate (Corning Incorporated) containing the mix medium. After adhesion of the string-like aggregates (2 to 3 days later), the medium was replaced with RPE maintenance medium (containing bFGF and SB431542). The dishes under culture were photographed using the IncuCyte Zoom system (Essen BioScience). From the obtained image data, expanded cells were manually marked using Fiji, and the expanded area was measured. In the present inventors' preliminary experiment (FIG. 14A), higher concentrations of Y-27632 appeared to affect the texture of the string-like aggregates to become tighter. […] The string-like aggregates on day 2 (FIGS. 13D and E) and day 3 (FIGS. 13F and G) were then used to compare cell expansion after plating in uncoated wells between string-like aggregates formed with 2.5 and 10 μM Y-27632.

[3] = system: hiPSC-RPE cells (201B7modFucci line); test: Adhesion/expansion assay of plated string-like aggregates, 201B7modFucci line
Description: The string-like aggregates were released from the grooves of the device, and the string-like aggregates were seeded onto an uncoated 24-well plate (Corning Incorporated) containing the mix medium. After adhesion of the string-like aggregates (2 to 3 days later), the medium was replaced with RPE maintenance medium (containing bFGF and SB431542). The dishes under culture were photographed using the IncuCyte Zoom system (Essen BioScience). From the obtained image data, expanded cells were manually marked using Fiji, and the expanded area was measured. The present inventors tested whether another hiPSC line could similarly form string-like aggregates. The present inventors used the 201B7modFucci line to induce RPE differentiation and compared it with hiPSC(M8)-RPE. hiPSC(201B7modFucci)-RPE also formed string-like aggregates like hiPSC(M8)-RPE, but the 201B7modFucci line required a Y-27632 concentration of 5 μM or higher to stably form string-like aggregates (FIG. 15-1A). The optimal Y-27632 concentration for adhesion/expansion assays was 5 μM for hiPSC(201B7modFucci)-string-like aggregates, and the optimal Y-27632 concentration for the desired adhesion/expansion effect varied depending on the cell line used and required optimization (FIGS. 14D and E). […]

`C[C@@H](N)[C@H]1CC[C@H](C(=O)Nc2ccncc2)CC1` [Y-27632] was tested. Which string-like aggregate formation ([1]; M8 line, 0 and 1 μM Y-27632) did it give?
The string-like aggregate formation was “not successfully formed”.

And the “Y-27632 concentration at which hiPSC-RPEs were able to form string-like aggregate shape” value ([1]; M8 line, tested 0, 1, 2, 2.5 and 10 μM)?
Its value is “above 2 μM”.

What about the “appearance of string-like aggregates” value ([1]; formed with 2.5 μM Y-27632) of the same molecule?
Its value is “flat and loose”.

What about the “appearance of string-like aggregates” value ([1]; formed with 10 μM Y-27632) of the same molecule?
The value was “more dense”.

What about the “adhesiveness of string-like aggregates to the plate” value ([2]; aggregates added with 2-2.5 μM Y-27632, M8 line, day 2 aggregates, 24-well plate) of the same molecule?
Its value is “highest adhesiveness to the plate”.

What about the “adhesion to plate and expansion of string-like aggregates” value ([2]; aggregates formed with 2.5 μM Y-27632, compared with 10 μM, day 2 and day 3 aggregates) of the same molecule?
The value was “tended to attach to the plate and begin to expand early after placing; also recorded: higher adhesiveness to the plate, covered more area, and began to expand faster on the plate”.

What about the “adhesion to plate and expansion of string-like aggregates” value ([2]; aggregates formed with 10 μM Y-27632) of the same molecule?
Its value is “expansion was delayed; also recorded: tended to be coil-like and moved around for several days before settling and starting to expand”.

And the “adhesiveness of string-like aggregates to the plate” value ([3]; aggregates added with 2-2.5 μM Y-27632, 201B7modFucci line, day 2 aggregates, 24-well plate)?
Its value is “consistently adherent to the plate”.

And the “optimal Y-27632 concentration for adhesion/expansion assays” value ([3]; hiPSC(201B7modFucci)-string-like aggregates)?
The value was 5 µM.
